Results taken from PubChem BioAssay AID1418 (Emory University Molecular Libraries Screening Center, 2008).
Activity calls are given as the source filed them. No rule for the calls is given here.

Biological target: Induced myeloid leukemia cell differentiation protein Mcl-1 (Homo sapiens) (UniProt Q07820)
Test: blockers of Bid binding to Mcl-1 – biochemical, TR-FRET, dose response (AID 1418)
Conditions: Mcl-1/Bid peptide binding, TR-FRET (europium/Dy647), 2 hr

Sequence of Induced myeloid leukemia cell differentiation protein Mcl-1 (Homo sapiens) (Q07820 whole entry, looked up): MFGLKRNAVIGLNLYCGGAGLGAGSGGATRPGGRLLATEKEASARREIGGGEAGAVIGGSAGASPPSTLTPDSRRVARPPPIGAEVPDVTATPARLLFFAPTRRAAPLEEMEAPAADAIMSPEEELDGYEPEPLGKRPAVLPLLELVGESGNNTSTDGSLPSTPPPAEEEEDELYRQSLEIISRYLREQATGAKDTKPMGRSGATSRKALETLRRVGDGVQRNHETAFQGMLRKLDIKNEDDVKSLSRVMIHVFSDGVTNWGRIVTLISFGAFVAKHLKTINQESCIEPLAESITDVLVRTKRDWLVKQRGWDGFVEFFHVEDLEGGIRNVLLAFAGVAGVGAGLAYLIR

Compound	IC50
COc1ccc(C2C(C#N)=C(N)OC3=C2C(=O)CCC3)cc1OC (stereo not given)	> 54 µM (inactive)
Cc1c(NC(=O)COC(=O)c2cc(-c3ccc(-c4ccccc4)cc3)nc3ccccc23)c(=O)n(-c2ccccc2)n1C	0.58 µM
CCOc1ccc2nc(NC(=O)c3cccc(-c4cc5ccccc5oc4=O)c3)sc2c1	1.94 µM
O=C(O)CCC(=O)NCCC1=c2ccccc2=N/C1=C\c1c(O)n(Cc2ccc(F)cc2)c(=S)[nH]c1=O	2.51 µM
CCOc1ccc(NC(=O)CC2C(=O)N(c3ccc(OC)cc3)C(=S)N2Cc2ccccn2)cc1 (stereo not given)	> 54 µM (inactive)
COc1ccc(CN2C(=O)/C(=C/c3ccc(-c4ccc(Cl)c(C(=O)O)c4)o3)SC2=S)cc1	1.65 µM
O=C(CN1C(=O)COc2ccccc21)N(Cc1ccc2c(c1)OCO2)CC1CCCO1 (stereo not given)	> 54 µM (inactive)
Cc1ccc(N2CCN(C3=NC(=O)/C(=C\c4cccs4)S3)CC2)cc1	> 54 µM (inactive)
CCOc1ccc(/C=C/C(=O)Nc2ccc(N3CCOCC3)cc2)cc1	> 54 µM (inactive)
CN(CC(=O)Nc1cccc(C#N)c1)Cc1ccc(Cl)cc1	> 54 µM (inactive)
CCOc1cc(N2CCOCC2)c(OCC)cc1NC(=O)c1cc(-c2ccco2)nc2ccccc12	12.5 µM
O=C(COC(=O)CC(NC(=O)c1ccccc1Cl)c1ccccc1)Nc1cccc(F)c1 (stereo not given)	> 54 µM (inactive)
COc1ccc(N2CCN(C(=O)c3ccc4c(c3)OCO4)CC2)cc1	> 54 µM (inactive)
CCc1ccc(NC(=O)c2ccnc(C(C)(C)C)c2)cc1	> 54 µM (inactive)
O=C(Nc1ccc(F)cc1)N1CCCN(c2ccc(C(F)(F)F)cn2)CC1	> 54 µM (inactive)
COc1ccccc1NC(=O)COc1cc(Br)c(CNCCCN2CCOCC2)cc1OC	> 54 µM (inactive)
COc1ccc(CCNC(=O)c2ccc(CNS(=O)(=O)c3ccc(C(C)(C)C)cc3)cc2)cc1OC	> 54 µM (inactive)
O=C(Nc1ccc(Cl)cc1)N1CCc2[nH]c3ccccc3c2C1	> 54 µM (inactive)
CN1CCN2c3ccc(N)cc3CC3(C(=O)NC(=O)NC3=O)C2C1 (stereo not given)	0.48 µM
Cc1nc(NC(=O)c2ccco2)sc1-c1csc(Nc2ccc(Cl)cc2Cl)n1	0.77 µM
Cn1nc(-c2ccc(Cl)cc2)c2cc(C(=O)NCCN3CCOCC3)sc21	> 54 µM (inactive)
O=C1NC(=O)N(c2ccc(F)cc2)C(=O)/C1=C/c1ccc2c(c1)CCCN2Cc1ccccc1	0.79 µM
O=C(Nc1cnn(C23CC4CC(CC(C4)C2)C3)c1)c1cnn2c(C(F)(F)F)cc(-c3ccco3)nc12	1.38 µM
NC(=O)c1cnn2c(-c3cccc(C(F)(F)F)c3)ccnc12	> 54 µM (inactive)

Compound	IC50
N#Cc1cc(-c2ccccc2)nc(Oc2ccccc2)n1	> 54 µM (inactive)
C#CCOCCOCCOCCNc1nc(N2CCN(C(=O)[C@H](Cc3cc4ccccc4[nH]3)n3cc([C@@H](N)C(C)CC)nn3)CC2)nc(N2CCN(C(=O)[C@H](CCCCN)n3cc([C@@H](N)CC(C)C)nn3)CC2)n1 (stereo not given in full)	16.9 µM
COc1ccc(C2SCC(=O)N2CCCN(C)C)cc1 (stereo not given)	> 54 µM (inactive)
O=S(=O)(c1ccc(NC(=S)NCc2cccnc2)cc1)N1CCCCC1	> 54 µM (inactive)
O=C(O)c1cccc(-n2cccc2/C=C2/NC(=O)N(c3ccc(Cl)cc3)C2=O)c1	0.53 µM
COc1ccc(CCNc2nc(-c3cccnc3)cs2)cc1OC	> 54 µM (inactive)
CCOC(=O)c1c(NC(=O)CN(C)C)sc(C(=O)N(CC)CC)c1C	> 54 µM (inactive)
COc1ccc(C(C)=O)cc1COc1ccc(Cl)cc1Cl	> 54 µM (inactive)
Cc1csc(NC(=O)C2CCN(S(=O)(=O)c3cccs3)CC2)n1	> 54 µM (inactive)
Clc1ccccc1-c1nc2ccccc2[nH]1	> 54 µM (inactive)
CN(C)S(=O)(=O)c1cccc(NC(=O)COC(=O)c2cc3ccccc3oc2=O)c1	> 54 µM (inactive)
CCC(CC)C(=O)Oc1c(Sc2ccccc2[N+](=O)[O-])c(C)nn1C(C)(C)C	> 54 µM (inactive)
O=[N+]([O-])c1ccc(NC(=S)NCCc2ccc(Cl)cc2)cc1	> 54 µM (inactive)
COc1ccc(CN2CCN(c3ccccc3F)CC2)cc1O	> 54 µM (inactive)
Cc1cccc(N2CCN(C(=S)Nc3ccc4nc(N5CCN(C)CC5)cc(C)c4c3)CC2)c1C	2.95 µM
CN(C)S(=O)(=O)c1cccc(-c2nn(-c3ccccc3)cc2/C=C2\SC(=S)NC2=O)c1	9.99 µM
COc1cccc(CNC(=O)CSCc2cnn(-c3ccccc3)c2-n2cccc2)c1OC	> 54 µM (inactive)
CN(C)CCCCOc1ccccc1-c1ccccc1	> 54 µM (inactive)
COc1cccc(NC(=O)CSc2nc3ccccc3n2C)c1	> 54 µM (inactive)
COc1ccc(CCNc2nc(-c3sc(C)nc3C)cs2)cc1OC	inactive
COc1ccc(OC)c(-n2c(N)c(C(=O)NCC3CCCO3)c3nc4ccccc4nc32)c1 (stereo not given)	> 54 µM (inactive)
COc1ccc2nc(NC(=O)c3ccc(-c4cccc([N+](=O)[O-])c4)o3)sc2c1	0.81 µM
Cc1[nH]n2c(=O)c3c(nc2c1-c1ccc(F)cc1)CCCC3	> 54 µM (inactive)
Nc1ccc(N)c(C(=O)O)c1	28.7 µM

Compound	IC50
O=C(Nc1ccccc1)NC1CCS(=O)(=O)C1 (stereo not given)	> 54 µM (inactive)
O=C(NCc1cccnc1)c1cc2nc(-c3ccc4c(c3)OCO4)cc(C(F)(F)F)n2n1	> 54 µM (inactive)
C=CCn1c(SCc2ccc([N+](=O)[O-])cc2)nnc1C(C)NC(=O)c1ccccc1 (stereo not given)	> 54 µM (inactive)
CCc1nnc(NS(=O)(=O)c2ccc(NC(=S)NC(=O)/C=C/c3ccc(C(C)C)cc3)cc2)s1	3.99 µM
O=C(NCc1nnc(SCC(=O)N2CCOCC2)o1)c1c(F)cccc1Cl	> 54 µM (inactive)
COc1ccc(CN2C(=O)c3cccnc3C2Nc2cc(Cl)c(OC)cc2OC)cc1 (stereo not given)	0.84 µM
CCc1ccc(C(CC(=O)c2ccc(Cl)cc2)C(=O)O)cc1 (stereo not given)	> 54 µM (inactive)
C=CC(c1ccccc1)C(C(=O)c1ccccc1)N(C)C (stereo not given)	> 54 µM (inactive)
COC(=O)C1=CN(CC2CCCO2)C=C(C(=O)OC)C1c1ccsc1 (stereo not given)	> 54 µM (inactive)
O=C(CCCN1C(=O)c2ccccc2C1=O)NCCCn1ccnc1	> 54 µM (inactive)
COc1ccccc1C1C2=C(N=c3s/c(=C/c4cccc(OCC(=O)O)c4)c(=O)n31)c1ccccc1CC2 (stereo not given)	11.2 µM
CNNC(=O)C(=O)NNS(=O)(=O)c1ccccc1	> 54 µM (inactive)
Cc1ccc(NC(=O)CN2C(=O)S/C(=C/c3ccc(-c4cc(C(=O)O)ccc4C)o3)C2=O)cc1C	2.69 µM
O=C(Nc1nnc(-c2ccco2)s1)C1CC1	> 54 µM (inactive)
O=C(Cc1ccc(F)cc1)Nc1nnc(SCC(=O)NC2CCCC2)s1	> 54 µM (inactive)
O=C(NNC(=O)c1ccccc1Cl)c1ccccc1Cl	> 54 µM (inactive)
NC(=S)n1[nH]c(-c2ccc([N+](=O)[O-])cc2)c(N=Nc2ccccc2[N+](=O)[O-])c1=O	3.26 µM
CCOc1ccc(N/C(=C(/C(Cl)=C(Cl)Cl)[N+](=O)[O-])n2cncn2)cc1	> 54 µM (inactive)
CCOC(=O)c1[nH]cnc1C(=O)Nc1ccncc1	> 54 µM (inactive)
COC(=O)CN1C(C)=Nc2ccc(Br)cc2C1c1ccccc1 (stereo not given)	> 54 µM (inactive)
Cc1ccccc1NCC(=O)N/N=C/C(Br)=C/c1ccccc1	> 54 µM (inactive)
Cc1ccc(S(=O)(=O)N2CCOCC2)cc1C(=O)N1C(=O)c2cccc(N)c2C1=O	> 54 µM (inactive)
C=C(C)Cn1c(Sc2nnc(C)s2)nc2c1c(=O)[nH]c(=O)n2C	> 54 µM (inactive)
Fc1ccc(NC(=S)N/N=C/c2cccc(Br)c2)c(F)c1	> 54 µM (inactive)

Compound	IC50
COc1ccc(Cc2nnc(NC(=O)Cc3cccs3)s2)cc1OC	> 54 µM (inactive)
CCc1ccc2c(CN(CC)Cc3nc4ccccc4c(=O)[nH]3)cc(=O)oc2c1	> 54 µM (inactive)
NC(=S)N/N=C/c1coc2c(ccc3ccccc32)c1=O	4.99 µM
COc1cccc(N2CCN(C(=O)NC3CCCCC3)CC2)c1	> 54 µM (inactive)
CCOc1cc(N2CCOCC2)c(OCC)cc1NC(=O)CCS(=O)(=O)c1ccc(Cl)cc1	> 54 µM (inactive)
Cc1cccc(N2CCN(C(=O)Cc3ccc(-n4c(=O)[nH]c5ccsc5c4=O)cc3)CC2C)c1 (stereo not given)	> 54 µM (inactive)
CC(C)(C)c1cc(-c2csc(Nc3ccccc3)[n+]2Cc2ccc(C(=O)O)cc2)cc(C(C)(C)C)c1O	0.66 µM
Cc1ccc(Nc2cc(=O)n(C3CCCCC3)c(=O)[nH]2)cc1C	> 54 µM (inactive)
COC(=O)C(Cc1csc2ccc(Cl)cc12)NC(=O)c1ccc(Cl)cc1 (stereo not given)	> 54 µM (inactive)
CCOC(=O)c1cc(-c2ccc(/C=C3/C(=O)NC(=O)C(C#N)=C3C)o2)ccc1Cl	0.79 µM
Cc1ccc(OCc2ccc(C(=O)Nc3nc4ccccc4n3Cc3ccccc3)o2)c([N+](=O)[O-])c1	> 54 µM (inactive)
Brc1cccc(OCCOCCn2ccnc2)c1	> 54 µM (inactive)
CCCCN1C(=O)/C(=C/C=C/c2ccco2)C(=O)NC1=S	8.35 µM
O=C(CN1C(=O)c2ccccc2C1=O)N1CCCCC1	> 54 µM (inactive)
O=C(Cc1ccccc1)Nc1scc(-c2ccccc2)c1C(=O)N1CCOCC1	> 54 µM (inactive)
CC(/C=C1\SC(=S)N(NS(=O)(=O)c2ccc(C)cc2)C1=O)=C\c1ccccc1	25 µM
Cc1cccc(N(CC(=O)Nc2c(C)n(C)n(-c3ccccc3)c2=O)S(C)(=O)=O)c1	> 54 µM (inactive)
Cc1c(C(=O)N/N=C/c2ccc(-c3ccccc3[N+](=O)[O-])o2)sc(N)c1C#N	14.1 µM
CCCOc1ccc(C(=O)NCC(c2ccco2)N(C)C)cc1OC (stereo not given)	> 54 µM (inactive)
COc1cc(C(=O)N/N=C\c2ccccc2)c([N+](=O)[O-])c(OC)c1OC	> 54 µM (inactive)
Cc1c([N+](=O)[O-])c(C(=O)Nc2ccc3c(c2)OCCO3)nn1C	> 54 µM (inactive)
COc1ccc(OC)c(NC(=S)N(CCc2c(C)[nH]c3ccc(C)cc23)Cc2cccs2)c1	> 54 µM (inactive)
COc1cc(/C=C2/SC(N)=NC2=O)ccc1Oc1ccc([N+](=O)[O-])cc1[N+](=O)[O-]	3.5 µM
